Consider 16 compounds from publication PMC11390726, “Automated design of multi-target ligands by generative deep learning” (Nature Communications, 2024).

Assay [1] deals with T1, AT1 (Homo sapiens, UniProt P30556).
T1 construct: expressed in transfected cells
T1 sequence (P30556 1-359): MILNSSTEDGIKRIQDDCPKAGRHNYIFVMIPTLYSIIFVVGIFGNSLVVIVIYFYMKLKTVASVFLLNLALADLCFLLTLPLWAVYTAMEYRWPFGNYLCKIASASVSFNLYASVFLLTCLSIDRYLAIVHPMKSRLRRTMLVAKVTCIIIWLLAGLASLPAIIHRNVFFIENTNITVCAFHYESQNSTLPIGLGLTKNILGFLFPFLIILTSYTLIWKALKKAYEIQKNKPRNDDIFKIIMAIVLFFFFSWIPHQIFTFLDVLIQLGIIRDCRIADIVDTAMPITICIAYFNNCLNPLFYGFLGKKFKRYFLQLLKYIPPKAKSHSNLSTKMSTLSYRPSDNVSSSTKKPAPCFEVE
Set-up: method as in earlier work. The settings on record: fine-tuning set; BindingDB; read-out: potency on target (IC50 for AT1); cited from earlier work.

Assay [2] deals with PPARδ. On the set-up: method as in earlier work. As to conditions: fine-tuning set; BindingDB; read-out: potency on target (EC50 for PPARδ); cited from earlier work.
The next assay relates to THRβ. Set-up: method as in earlier work. The settings on record: fine-tuning set; BindingDB; read-out: potency on target (EC50 for THRβ); cited from earlier work.
Assay [3] concerns the target T2, PPARδ (Homo sapiens, UniProt Q03181).
T2 construct: expressed in transfected cells; host or cells: HEK293T
T2 sequence (Q03181 211-439 limits assumed): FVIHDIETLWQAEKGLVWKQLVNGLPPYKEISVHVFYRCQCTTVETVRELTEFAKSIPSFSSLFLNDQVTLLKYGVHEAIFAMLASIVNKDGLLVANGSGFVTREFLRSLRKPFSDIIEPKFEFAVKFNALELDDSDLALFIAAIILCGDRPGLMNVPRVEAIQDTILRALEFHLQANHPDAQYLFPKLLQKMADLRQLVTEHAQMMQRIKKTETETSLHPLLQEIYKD
Description: Gal4-hybrid reporter gene assay PPARδ. It is filed as cell-based. As to conditions: mean, n ≥ 3. The text has this:
(§1) Compound 7 was originally designed with tert-butyloxy motif which was replaced by tert-butyl for improved chemical stability. The dual ligand candidates were characterized in functional assays for the targets of interest using cellular Gal4-hybrid reporter gene assays[43] to determine FXR, THRβ and PPARδ modulation and an enzyme activity assay[44] with the fluorogenic substrate PHOME to test sEH inhibition (Table 1). In vitro characterization of the CLM designed dual FXR/sEH modulators 1–3 confirmed engagement of both targets by all three compounds with sub-micromolar to low micromolar potencies. […] All designed PPARδ/sEH modulators (7–9) were confirmed as dual ligands of the intended targets. 7 emerged as remarkably potent sEH inhibitor endowed with micromolar PPARδ agonist activity.
HEK293T cells (ATCC, CRL-1573) were cultured in Dulbecco’s modified eagle medium (DMEM), high glucose, supplemented with 10% FCS, sodium pyruvate (1 mM), penicillin (100 U/mL), and streptomycin (100 µg/mL) to 70–80% confluence at 37 °C and 5% CO2 and seeded in clear 96-well plates with a density of 40,000 cells/well. After 24 h, the medium was changed to Opti-MEM without supplements. Transient transfection was performed using Lipofectamine LTX reagent (Invitrogen, Carlsbad, CA, USA) according to the manufacturer’s protocol with pFR-Luc (100 ng/well) as reporter plasmid, pRL-SV40 (2 ng/well) for normalization of transfection efficiency and cell growth, and one pFA-CMV-hNR-LBD clone coding for the hinge region and ligand binding domain (LBD) of the NR of interest. […] After overnight (14–16 h) incubation, luminescence was measured using the Dual-Glo® Luciferase Assay System (Promega, Madison, WI, USA) according to the manufacturer’s protocol with a Tecan Spark® 10 M multimode microplate reader. Relative light units (RLU) for normalization of transfection efficiency and cell growth were calculated by dividing firefly luminescence by renilla luminescence and multiplication by 1000. […]

In another assay the target is T3, sEH (Homo sapiens, UniProt P34913).
T3 construct: His tag (inferred from HisTrap purification with imidazole elution); made in house; own inference
T3 sequence (P34913 1-555): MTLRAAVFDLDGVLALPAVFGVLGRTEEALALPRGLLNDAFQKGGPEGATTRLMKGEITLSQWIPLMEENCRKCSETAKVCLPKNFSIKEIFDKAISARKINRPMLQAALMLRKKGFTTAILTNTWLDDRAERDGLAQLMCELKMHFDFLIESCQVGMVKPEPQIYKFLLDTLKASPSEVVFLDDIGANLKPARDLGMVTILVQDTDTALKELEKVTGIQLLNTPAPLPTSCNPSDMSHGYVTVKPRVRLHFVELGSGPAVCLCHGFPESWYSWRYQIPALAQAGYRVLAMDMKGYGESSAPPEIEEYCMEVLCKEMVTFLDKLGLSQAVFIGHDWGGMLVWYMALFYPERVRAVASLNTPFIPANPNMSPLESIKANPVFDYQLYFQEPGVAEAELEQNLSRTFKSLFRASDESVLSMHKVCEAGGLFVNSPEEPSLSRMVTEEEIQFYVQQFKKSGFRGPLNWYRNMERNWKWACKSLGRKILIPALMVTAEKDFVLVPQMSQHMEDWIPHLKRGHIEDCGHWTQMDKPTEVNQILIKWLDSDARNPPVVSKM
Put plainly: sEH enzyme activity assay with fluorogenic substrate PHOME. It is filed as biochemical. As to conditions: mean, n ≥ 3.
Description: as §1
Soluble epoxide hydrolase (sEH) was purified as described by Hahn et al.[68] and Lukin et al.[69], respectively. Protein expression was carried out in 500 ml ZYP5052 autoinduction medium containing Kanamycin (100 mg/L) with lactose uptake-dependent induction. The fermentation procedure started at 37 °C and 200 rpm until the OD600 reached approximately 1.0. Then the temperature was reduced to 16 °C. After 24–36 h the cells (OD600 ≈ 15.0) were harvested by centrifugation at 5000 × g (4 °C, 20 min). Pellets were resuspended in a resuspension buffer containing Tris (50 mM), NaCl (0.5 M) and MgCl2 (10 mM) at pH 8 and sonicated twice for 15 s on ice. The sonicated suspension was centrifuged (18,000 × g, 30 min, 4 °C) and the supernatant was ultracentrifuged (100,000 × g, 1 h 10 min, 4 °C). The ultracentrifugation supernatant was loaded on a 5 ml HisTrap® FF (GE Healthcare, München, Germany) column at a flow rate of 2 ml/min and washed with washing buffer containing Tris (50 mM), NaCl (0.5 M), MgCl2 (10 mM), imidazole (20 mM) and DTT (3 mM) at pH 8, and eluted at 120 mM imidazole. The fractions containing hsEH after SDS-PAGE fraction analysis were pooled. The identity of hsEH was confirmed by Western Blotting and hsEH hydrolase activity assay. The inhibitory potency of the compounds was determined using a fluorescence-based enzyme activity assay in which PHOME (3-phenyl-cyano(6-methoxy-2-naphthalenyl)methylester-2-oxiraneacetic acid) is metabolized by sEH hydrolase towards a fluorescent naphthalene aldehyde. Dilution series of the compounds were incubated for 30 min with recombinant sEH (final protein concentration 3 nM). Subsequently, the fluorogenic substrate PHOME at final concentration of 50 μM was added, and the fluorescence was measured every minute for 45 min using a Tecan plate reader (ex: 360 nm, em: 465 nm; bandwidth 35 nm). Inhibition in percent was plotted against the logarithmic test compound concentration and IC50-values were calculated using the “log(Inhibitor) vs. Response – Variable slope (four parameters)” equation in GraphPad Prism 7.

Assay [4] concerns the target T1, AT1. Put plainly: IP-One assay for AT1 in stably transfected CHO-K1 cells. It is filed as cell-based. The settings on record: cellular IP-One assay; mean, n ≥ 3. On the procedure: (§2) CHO-K1 cells (DSMZ, ACC110) were cultured at 5% CO2 and 37 °C in full growth medium (Ham’s F-12 medium supplemented with 10% fetal calf serum (FCS), penicillin (100 U/mL) and streptomycin (100 µg/mL)). For harvesting cells were incubated with Trypsin/EDTA. IP-One assay for AT1 and FFAR1. To investigate the ligand dependent activation of the two GPCRs, inositol mono-phosphate (IP-One) accumulation was monitored using an HTRF based displacement assay between FRET acceptor coupled IP-One and Terbium cryptate coupled anti-IP-One antibody (IP-One assay kit, Cisbio Bioassays, Codolet, France). AT1: the IP-One assay for AT1 was performed according to the protocol published by Hernandez-Olmos et al.[66] In brief, by using the sleeping beauty method a CHO-K1 cell line was generated which stably overexpresses AT1 isoform 1 and GNA11 (G-protein subunit α 11) as well as cells only overexpressing the GNA11 without any GPCR, as control. Cells were seeded into white tissue culture 384-well plates (Greiner Bio-One, Frickenhausen, Germany) at 15,000 cells/well and incubated overnight at 37 °C and 5% CO2. […] Antagonist activity of compounds was measured with parallel stimulation with 10 nM [Val5]-Angiotensin II. […] A full dose-response curve with FFAR1 reference agonist GW9508 was measured as control for assay performance. […]

For the next assay, the target named is T4, FFAR1 (Homo sapiens, UniProt O14842).
T4 construct: expressed in transfected cells
T4 sequence (O14842 whole entry): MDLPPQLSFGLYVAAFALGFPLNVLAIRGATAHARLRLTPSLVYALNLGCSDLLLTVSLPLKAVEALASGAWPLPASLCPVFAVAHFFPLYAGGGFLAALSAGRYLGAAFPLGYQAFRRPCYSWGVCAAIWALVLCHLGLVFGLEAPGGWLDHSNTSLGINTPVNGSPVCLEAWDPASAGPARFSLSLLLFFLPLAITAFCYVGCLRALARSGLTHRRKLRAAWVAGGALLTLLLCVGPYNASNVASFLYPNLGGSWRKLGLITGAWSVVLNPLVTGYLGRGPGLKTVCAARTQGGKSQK
Put plainly: IP-One assay for FFAR1 in stably transfected CHO-K1 cells. The assay is classed as cell-based. The settings on record: cellular IP-One assay; mean, n ≥ 3. On the procedure:
as §2

Entries after “also recorded” stand apart in the source; their conditions may differ.

Turning to `CCCCc1cnc(C(=O)O)n1Cc1ccc(-c2ccccc2C)cc1`, on AT1 [1], the concentration for half-maximal inhibition (IC50) is 3 nM.
`CCCCc1ncc(/C=C(\Cc2cccs2)C(=O)O)n1Cc1ccc(C(=O)O)cc1`: the IC50 at AT1 [1] was 2 nM.
For `CCO[C@H](COc1ccc(C(F)(F)F)cc1)CSc1ccc(OCC(=O)O)c(C)c1`, the EC50 in the assay on PPARδ [2] was 2 nM.
`CC(C)c1cc(Oc2c(Cl)cc(-n3nc(C#N)c(=O)[nH]c3=O)cc2Cl)nn(C)c1=O`: the EC50 with THRβ was 40 nM.
As to `CC(C)c1cc(Oc2c(Cl)cc(NC(=O)C(=O)O)cc2Cl)n[nH]c1=O`, in the assay on THRβ, the 50% effective concentration (EC50) was 120 nM.
For the compound `COc1ccc2c(c1OCc1ccccc1)CC(C(=O)O)N(C(=O)C(c1ccccc1)c1ccccc1)C2` (stereo not shown), on AT1 [1], the IC50 was 1000 nM.
With `Cc1c(CC(=O)O)c2ccccc2n1Cc1ccc(O)c(C(C)C)c1`, the EC50 with THRβ is 150 nM.
For the compound `Cc1cc(SCc2sc(-c3ccc(C(F)(F)F)cc3)nc2C)ccc1OCC(=O)O`, the half-maximal effective concentration (EC50) in the assay with PPARδ [2] is […].
On to `CC(C)c1onc(-c2c(Cl)cccc2Cl)c1COc1ccc(CNc2ccc(CC(=O)O)cc2)c(Cl)c1`, for which, in the assay on PPARδ [2], the EC50 is 2000 nM.
Consider `O=C(O)Cc1cc(Cl)c(Oc2ccc(O)c(C(=O)NCC(c3ccccc3)c3ccccc3)c2)c(Cl)c1`, for which the EC50 in the assay on THRβ was 0.5 nM.
On PPARδ [3], `CC(C)(C)c1ccc(NC(=O)N[C@H]2CC[C@H](Oc3ccc(CCC(=O)O)cc3)CC2)cc1` [Compound 7] showed an EC50 of 10000 nM. The midpoint of inhibition at sEH, the IC50, lay at 17 nM.
Take `O=C(O)CCc1ccc(OC2CCCN(C(=O)NCc3c(Cl)cc(Cl)cc3Cl)CC2)cc1` (stereo not shown) [Compound 8]: the “PPARδ: fold act. at 80 µM” value at PPARδ [3] came to 6.7 fold. Besides, at sEH, the IC50 was 200 nM.
In the case of `O=C(O)CCc1ccc(OC2CCN(C(=O)NCc3c(Cl)cc(Cl)cc3Cl)CC2)cc1` [Compound 9], at PPARδ [3], the “PPARδ: fold act. at 80 µM” value was 3.0 fold. In addition, half-maximal inhibition at sEH (IC50) required 270 nM.
For `O=C(O)c1ccc(OC2CCCN(C(=O)NCc3ccc(Cl)cc3Cl)CC2)cc1` (stereo not shown) [Compound 10], at AT1 [4], the “AT1: activity” value was “inactive”. Also, half-maximal inhibition against sEH (IC50) required 20 nM.
Regarding `CCC(c1ccc(C(=O)O)cc1)c1cccc(NC(=O)Nc2ccc(OC(F)(F)F)cc2)c1` (stereo not shown) [Compound 11], on sEH, the IC50 is 61 nM. In addition, the “FFAR1: activity” value on FFAR1 was “inactive”.
Consider `CC#CC(CC(=O)O)c1ccc(OCc2cccc(-c3ccccc3C(=O)O)c2)cc1` (stereo not shown) [Compound 12], for which the “AT1: activity” value at AT1 [4] is “no effect; also recorded: inactive”. Also, the midpoint of the response at FFAR1, the EC50, lay at 8500 nM.
